From patent US20230000840A1, “THERAPEUTIC AGENTS AND PROPHYLACTIC AGENTS FOR FUNCTIONAL GASTROINTESTINAL DISORDERS AND XEROSTOMIA” (NIPPON SHINYAKU CO., LTD., priority 2019, published 2023)

Experiments:
ileum = experiment: Magnus test: carbachol-induced contraction of isolated rat ileum; details: test compound 10 μM, then carbachol 50 nM, 100% = carbachol 1000 nM, 0% = DMSO + carbachol 50 nM, average ± standard error, read-out: Enhancement ratio P of the contraction force
Experimental: 9- to 15-week-aged SD female rats (Japan SLC, Inc.) were exsanguinated to death by amputation of carotid artery under isoflurane anesthesia. Then, the ileum was removed from each rat, and cut to a length of 2 cm while excising the mesentery and connective tissue, to prepare an intestinal sample. In a Magnus tank, this sample was immersed and suspended in 20 mL of a Krebs solution at 37° C. (118 mM NaCl, 4.7 mM KCl, 2.5 mM CaCl2, 1.2 mM MgSO4, 1.2 mM KH2PO4, 11 mM D-glucose, 20 mM NaHCO3) aerated with a mixed gas of 95% O2 and 5% CO2. Then, a load of 1 g was applied to the sample to stabilize the tension.
One end of the sample was connected to an isotonic transducer (IT-10, Medical Agent), and tension (contraction force) data was imported to a personal computer via Power Lab (registered trademark) (A&D Instruments Limited). Carbachol (Carbamylcholine Chloride, Cat. No. 036-09841, manufactured by FUJIFILM Wako Pure Chemical Industries, Ltd.) was added to the Krebs solution in the Magnus tank such that the final concentration thereof was 1000 nM, and contraction of the sample was checked. A contraction force Tb of the sample at this time was defined as 100%. Then, the Magnus tank was washed with a Krebs solution three times to wash away carbachol, and the Magnus tank was finally filled with 20 mL of a Krebs solution.
Next, dimethyl sulfoxide (DMSO, Cat. No. 13445-74, manufactured by NACALAI TESQUE, INC.) was added to the Krebs solution in the Magnus tank, then carbachol was added to the Krebs solution in the Magnus tank such that the final concentration thereof was 50 nM, and contraction of the sample was checked. A contraction force Ta of the sample at this time was defined as 0%. Then, the Magnus tank was washed with a Krebs solution three times to wash away carbachol and DMSO, and the Magnus tank was finally filled with 20 mL of a Krebs solution. Next, a test compound dissolved in DMSO was added to the Krebs solution in the Magnus tank such that the final concentration thereof was 10 μM, then carbachol was added to the Krebs solution in the Magnus tank such that the final concentration thereof was 50 nM, and contraction of the sample was checked.
As described above, the contraction force Tb of the sample when carbachol was added at a final concentration of 1000 nM was defined as 100%, and the contraction force Ta of the sample when carbachol was added at a final concentration of 50 nM under the condition that DMSO was added first instead of the test compound was defined as 0%. The contraction force of the sample when carbachol was added at a final concentration of 50 nM under the condition that the test compound was added first at a final concentration of 10 μM was denoted by Tc, and an enhancement ratio P (unit: %) of the contraction force by the test compound was calculated according to the following equation (2). The increase in contraction force by the test compound was evaluated on the basis of the enhancement ratio P. The number of cases in each addition group was 3 to 7.
P=100×(Tc−Ta)/(Tb−Ta) (2)

anesthetized mice = experiment: Measurement of secreted saliva amount in anesthetized mice; format: in vivo, mouse; details: for Amount of saliva secreted: urethane-anesthetized male ICR mice, 10 mg/kg intravenous, cotton balls weighed after 30 minutes, average ± standard error
Experimental: 8-week-aged male ICR mice (Japan SLC, Inc.) were anesthetized with urethane (1650 mg/kg, intraperitoneal administration). After about 1 hour, a test compound or a vehicle (physiological saline containing 10% DMSO (OTSUKA NORMAL SALINE, manufactured by Otsuka Pharmaceutical Factory, Inc.)) was intravenously administered at 10 mg/kg, and immediately after that, one or two absorbent cotton wool balls ([…]) (Roller Cotton (cotton ball) SS, manufactured by Nichiei Co., Ltd.) were inserted into the mouth. The difference between the weight of the absorbent cotton balls after 30 minutes from insertion and the weight of the absorbent cotton balls before insertion was defined as an amount of saliva secreted. At this time, the test compound was dissolved in DMSO and then diluted 10-fold with physiological saline. The administration volumes of the test compound and the vehicle were each set to 5 mL/kg. The experiment was carried out in three parts. The number of cases in each administration group was 3-4.

Row | SMILES | activation at 10 µM (ileum) [%] | Amount of saliva secreted (anesthetized mice) [mg] | Salivation promoting effect (anesthetized mice; urethane-anesthetized mice, dose not given)
1 | CCOc1cc(-c2cc(N(C)CC(C)(C)COC)c3[nH]c(-c4cnc(N5CCC(C(=O)O)CC5)cn4)nc3n2)cc(C(F)(F)F)n1 [Example 7, 1-(5-{5-[2-Ethoxy-6-(trifluoromethyl)pyridin-4-yl]-7-[(3-methoxy-2,2-dimethylpropyl)(methyl)amino]-1H-imidazo[4,5-b]pyridin-2-yl}pyrazin-2-yl)piperidine-4-carboxylic acid] | 25.8 ± 6.38 | 73.40 ± 28.54 | –
2 | CCOc1cc(-c2cc(N(C)CC3(COC)CCCC3)c3[nH]c(-c4cnc(N5CCC(C(=O)O)CC5)cn4)nc3n2)cc(C(F)(F)F)n1 [Example 9, 1-(5-{5-[2-Ethoxy-6-(trifluoromethyl)pyridin-4-yl]-7-[{[1-(methoxymethyl)cyclopentyl]methyl}(methyl)amino]-1H-imidazo[4,5-b]pyridin-2-yl}pyrazin-2-yl)piperidine-4-carboxylic acid] | 36.9 ± 6.43 | 34.73 ± 11.39 | –
3 | CCOc1cc(-c2cc(N(C)CC3(COC)CCC3)c3[nH]c(-c4cnc(N5CCC(C(=O)O)CC5)cn4)nc3n2)cc(C(F)(F)F)n1.Cl.Cl [Example 4, 1-(5-{5-[2-Ethoxy-6-(trifluoromethyl)pyridin-4-yl]-7-[{[1-(methoxymethyl)cyclobutyl]methyl}(methyl)amino]-1H-imidazo[4,5-b]pyridin-2-yl}pyrazin-2-yl)piperidine-4-carboxylic acid dihydrochloride] | 59.3 ± 7.17 | 77.35 ± 16.66 | –
4 | COCC1(CN(C)c2cc(-c3cnc(C4CC4)c(C(F)(F)F)c3)nc3nc(-c4cnc(N5CCN(CCC(=O)O)CC5)cn4)[nH]c23)CCCCC1 [Example 10] | 19.3 ± 5.52 | 329.83 ± 49.36 | –
5 | COCC1(CN(C)c2cc(-c3cnc(C4CC4)c(C(F)(F)F)c3)nc3nc(-c4ccc(OC5CCN(CC(=O)O)CC5)cc4F)[nH]c23)CCCC1 [Example 11, [4-(4-{5-[6-Cyclopropyl-5-(trifluoromethyl)pyridin-3-yl]-7-[{[1-(methoxymethyl)cyclopentyl]methyl}(methyl)amino]-1H-imidazo[4,5-b]pyridin-2-yl}-3-fluorophenoxy)piperidin-1-yl]acetic acid] | 30.1 ± 3.79 | 51.85 ± 7.37 | –
6 | COCC1(CN(C)c2cc(-c3cnc(C4CC4)c(C(F)(F)F)c3)nc3nc(-c4cnc(N5CCN(CCC(=O)[O-])C[C@H]5C)cn4)[nH]c23)CCCC1.[Na+] [Example 15, Sodium 3-[(3R)-4-(5-{5-[6-cyclopropyl-5-(trifluoromethyl)pyridin-3-yl]-7-[{[1-(methoxymethyl)cyclopentyl]methyl}(methyl)amino]-1H-imidazo[4,5-b]pyridin-2-yl}pyrazin-2-yl)-3-methylpiperazin-1-yl]propanoate] | 79.3 ± 12.2 | 304.98 ± 58.25 | –
7 | COCC1(CN(C)c2cc(-c3cc(F)cc(C(F)(F)F)c3)nc3nc(-c4cnc(N5CCC(F)(C(=O)O)CC5)cn4)[nH]c23)CCC1 [Example 2, 4-Fluoro-1-(5-{5-[3-fluoro-5-(trifluoromethyl)phenyl]-7-[{[1-(methoxymethyl)cyclobutyl]methyl}(methyl)amino]-1H-imidazo[4,5-b]pyridin-2-yl}pyrazin-2-yl)piperidine-4-carboxylic acid] | 61.5 ± 8 | 9.73 ± 3.61 | –
8 | COCC1(CN(C)c2cc(-c3cc(C4CC4)nc(C(F)(F)F)c3)nc3nc(-c4cnc(N5CCN(CCC(=O)[O-])C[C@H]5C)cn4)[nH]c23)CCCCC1.[Na+] [Example 14, Sodium 3-[(3R)-4-(5-{5-[2-cyclopropyl-6-(trifluoromethyl)pyridin-4-yl]-7-[{[1-(methoxymethyl)cyclohexyl]methyl}(methyl)amino]-1H-imidazo[4,5-b]pyridin-2-yl}pyrazin-2-yl)-3-methylpiperazin-1-yl]propanoate] | 65.1 ± 15 | 142.70 ± 23.51 | –
9 | CCOCC1(CN(C)c2cc(-c3cnc(C4CC4)c(C(F)(F)F)c3)nc3nc(-c4cnc(N5CCC(C(=O)O)CC5)cn4)[nH]c23)CCCC1 [Example 8, 1-(5-{5-[6-Cyclopropyl-5-(trifluoromethyl)pyridin-3-yl]-7-[{[1-(ethoxymethyl)cyclopentyl]methyl}(methyl)amino]-1H-imidazo[4,5-b]pyridin-2-yl}pyrazin-2-yl)piperidine-4-carboxylic acid] | 12.4 ± 5.31 | 49.13 ± 11.95 | –
10 | CCOc1ncc(-c2cc(N(C)CC3(COC)CCCC3)c3[nH]c(-c4ccc(N5CCC(C(=O)O)CC5)cc4F)nc3n2)cc1C(F)(F)F [Example 6, 1-(4-{5-[6-Ethoxy-5-(trifluoromethyl)pyridin-3-yl]-7-[{[1-(methoxymethyl)cyclopentyl]methyl}(methyl)amino]-1H-imidazo[4,5-b]pyridin-2-yl}-3-fluorophenyl)piperidine-4-carboxylic acid] | 26.7 ± 5.04 | 11.37 ± 2.87 | –
11 | COCC1(CN(C)c2cc(-c3cc(C4CC4)nc(C(F)(F)F)c3)nc3nc(-c4cnc(N5CCC(OCC(=O)O)CC5)cn4)[nH]c23)CCCC1 [Example 5, {[1-(5-{5-[2-Cyclopropyl-6-(trifluoromethyl)pyridin-4-yl]-7-[{[1-(methoxymethyl)cyclopentyl]methyl}(methyl)amino]-1H-imidazo[4,5-b]pyridin-2-yl}pyrazin-2-yl)piperidin-4-yl]oxy}acetic acid] | 33.5 ± 3.39 | 66.30 ± 15.32 | –
12 | CCOc1ncc(-c2cc(N(C)CC3(COC)CCC3)c3[nH]c(-c4cnc(N5CCC(C(=O)O)CC5)cn4)nc3n2)cc1C(F)(F)F [Example 3, 1-(5-{5-[6-Ethoxy-5-(trifluoromethyl)pyridin-3-yl]-7-[{[1-(methoxymethyl)cyclobutyl]methyl}(methyl)amino]-1H-imidazo[4,5-b]pyridin-2-yl}pyrazin-2-yl)piperidine-4-carboxylic acid] | 57.3 ± 7.24 | 27.23 ± 5.94 | –
13 | COCC1(CN(C)c2cc(-c3cc(F)cc(C(F)(F)F)c3)nc3nc(-c4cnc(N5CCN(CC(=O)O)CC5)cn4)[nH]c23)CCC1 [Example 1, [4-(5-{5-[3-Fluoro-5-(trifluoromethyl)phenyl]-7-[{[1-(methoxymethyl)cyclobutyl]methyl}(methyl)amino]-1H-imidazo[4,5-b]pyridin-2-yl}pyrazin-2-yl)piperazin-1-yl]acetic acid] | 30.4 ± 8.34 | 9.63 ± 2.90 | –
14 | COC[C@@H]1CN(c2cnc(-c3nc4nc(-c5cnc(C6CC6)c(C(F)(F)F)c5)cc(N(C)CC5(COC)CCCCC5)c4[nH]3)cn2)CCN1CCC(=O)O [Example 12, 3-[(2S)-4-(5-{5-[6-Cyclopropyl-5-(trifluoromethyl)pyridin-3-yl]-7-[{[1-(methoxymethyl)cyclohexyl]methyl}(methyl)amino]-1H-imidazo[4,5-b]pyridin-2-yl}pyrazin-2-yl)-2-(methoxymethyl)piperazin-1-yl]propanoic acid] | 49.3 ± 11 | 131.75 ± 28.63 | –
15 | CC[C@@H]1C(=O)OC[C@@H]1Cc1cncn1C [pilocarpine, reference compound] | – | – | exhibited a salivation promoting effect
